Reference: patent US9650389B2, “8-oxoprotoberberine derivative or pharmaceutically acceptable salt thereof, preparation method therefor and pharmaceutical composition for preventing or treating diseases associated with activity of NFAT5, containing same as active ingredient” (Korea Research Institute of Chemical Technology, priority 2013, dated 2017)

Key:
[1] = molecular target: T1, NFAT5 (Mus musculus, UniProt Q9WV30); test: NFAT5 reporter screening (GFP, HCS) in LPS-treated Raw264.7 cells; assay type: cell-based; conditions: for Inhibition rate of NFAT5 transcription (%): Raw264.7 reporter, LPS 1 μg/ml, 48 hours
T1 construct: endogenous in cells; host or cells: RAW264.7
Description: To investigate whether or not the derivative of the present invention could inhibit the transcriptional activity of NFAT5, NFAT5 reporter screening was performed. A plasmid vector was constructed by eliminating CMV promoter sequence from the backbone and inserting NFAT5 binding site sequence ([…]) instead. Raw264.7 cells transfected with the vector were cultured in 10% FBS-PRMI (supplemented with 500 μg/ml G418). The cells were distributed in a 96-well plate at the density of 3×10^3 cells/well, followed by further culture for one more day. The cells were treated with LPS at the concentration of 1 μg/ml for 48 hours. Then, the cells were fixed and the expression level of GFP was measured by HCS fluorescence image (Thermo, ArrayScan^VTI).

[2] = tested on: NFAT5 transcript BGT1 and AR; test: NaCl-mediated up-regulation of NFAT5 transcripts (hypertonic condition), RAW264.7 cells, real-time PCR; assay type: cell-based, mouse; conditions: 1 μM pre-treatment 1 hour, NaCl 45 mM 3 hours
Description: It was investigated whether or not the factors regulated by NFAT5 under the hypertonic condition could be affected by the compound of Example 1. Particularly, RAW264.7 cells were distributed in a 6-well plate at the density of 1.5×10^5 cells/well, followed by culture and stabilization in 10% FBS-RPMI 1640 medium. The cells were pre-treated with the compound of Example 1 (1 μM) for 1 hour, and then stimulated with NaCl (45 mM) for 3 hours. mRNA was extracted from the cells, from which cDNA was synthesized.

[3] = molecular target: T2, COX1 (Ovis aries, UniProt P05979); test: COX inhibition, COX assay kit (Table 4); assay type: biochemical
T2 construct: purchased Cayman Co. 760111
T2 sequence (P05979 25-600): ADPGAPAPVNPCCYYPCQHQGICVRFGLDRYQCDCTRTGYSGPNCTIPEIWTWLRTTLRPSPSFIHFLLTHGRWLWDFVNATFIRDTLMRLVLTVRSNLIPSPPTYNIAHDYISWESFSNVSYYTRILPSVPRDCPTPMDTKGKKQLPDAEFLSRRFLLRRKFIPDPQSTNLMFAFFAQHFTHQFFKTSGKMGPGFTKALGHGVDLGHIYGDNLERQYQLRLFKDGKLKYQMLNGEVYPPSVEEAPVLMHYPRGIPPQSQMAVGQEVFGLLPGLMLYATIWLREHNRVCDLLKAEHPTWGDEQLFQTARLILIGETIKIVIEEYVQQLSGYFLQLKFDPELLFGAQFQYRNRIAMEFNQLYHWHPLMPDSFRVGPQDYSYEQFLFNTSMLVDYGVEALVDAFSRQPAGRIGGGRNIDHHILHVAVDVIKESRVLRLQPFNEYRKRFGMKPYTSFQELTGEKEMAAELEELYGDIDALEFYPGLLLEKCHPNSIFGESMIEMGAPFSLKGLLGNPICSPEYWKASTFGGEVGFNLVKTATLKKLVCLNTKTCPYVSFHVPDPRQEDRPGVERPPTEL
Description: (§1) 10 μl of substrate and 10 μl of arachidonic acid were added thereto, followed by reaction for 10 minutes in the darkness. Then, OD590 was measured.

[4] = molecular target: T3, COX2 (Ovis aries, UniProt P79208); test: COX inhibition, COX assay kit (Table 5); assay type: biochemical
T3 construct: purchased Cayman Co. 760111
T3 sequence (P79208 17-603): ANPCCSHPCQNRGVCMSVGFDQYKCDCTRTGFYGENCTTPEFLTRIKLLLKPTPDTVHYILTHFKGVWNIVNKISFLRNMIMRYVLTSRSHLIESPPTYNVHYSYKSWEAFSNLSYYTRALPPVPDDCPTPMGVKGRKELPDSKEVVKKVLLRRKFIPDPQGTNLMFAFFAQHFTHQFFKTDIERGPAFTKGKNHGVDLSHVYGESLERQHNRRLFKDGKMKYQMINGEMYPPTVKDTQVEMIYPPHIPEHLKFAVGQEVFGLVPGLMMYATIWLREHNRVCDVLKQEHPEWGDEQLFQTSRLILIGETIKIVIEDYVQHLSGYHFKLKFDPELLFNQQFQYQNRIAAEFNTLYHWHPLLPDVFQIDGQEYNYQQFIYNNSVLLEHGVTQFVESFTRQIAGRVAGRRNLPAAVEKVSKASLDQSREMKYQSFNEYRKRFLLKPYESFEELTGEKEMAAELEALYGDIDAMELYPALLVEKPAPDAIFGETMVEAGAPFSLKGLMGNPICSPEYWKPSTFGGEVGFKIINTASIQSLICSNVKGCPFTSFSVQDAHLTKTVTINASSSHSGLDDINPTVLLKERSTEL
Description: as §1

[5] = tested on: inflammatory cytokines (TNF-α, IL-6); test: Inflammatory cytokines in LPS-stimulated spleen cells of collagen-induced arthritis mice (ELISA); assay type: in vivo; conditions: 15 and 60 mg/kg; arthritis mouse spleen cells, LPS 12 hours; FIG. 8
Description: Particularly, the mice having arthritis induced by collagen in Example 10 were used herein. Cells were extracted from the mouse spleen, which were cultured in a 12-well plate and stabilized. Cells were stimulated with LPS for 12 hours and the expressions of inflammatory cytokines (TNF-α, IL-6) were measured by ELISA.

[6] = Metabolic stability in rat liver microsomes; assay type: in vitro ADME; conditions: rat liver microsome fractions, 30 minutes
Description: (§2) Particularly, each compound was added to rat and human liver microsome fractions, followed by culture for 30 minutes. Each compound was administered via intravenous injection (iv) and oral-administration (po) to rat at the concentration of 5 mg/kg, followed by making pharmacokinetic profiles.

[7] = Metabolic stability in human liver microsomes; assay type: in vitro ADME; conditions: human liver microsome fractions, 30 minutes
Description: as §2

[8] = tested on: IL-6 and TNF-α; test: Inflammatory cytokine expression in LPS-treated human mononuclear cells (PBMC), real-time PCR; assay type: cell-based; conditions: LPS 1 μg/ml, compound 1 μg/ml, 6 hours, FIG. 11
Description: Particularly, PBMC separated from healthy human blood was treated with LPS (1 μg/ml). The cells were treated with the compound of the present invention at the concentration of 1 μg/ml, followed by culture for 6 hours to investigate whether or not the induced inflammatory cytokine secretion was inhibited by the compound. RNA was separated from the cells, from which the transcription levels of IL-6 and TNF-α were quantified by real-time PCR. The results are shown in FIG. 11 (NC: negative control, PC: positive control).

[9] = Conc. 20 μM, two values per substance
[10] = Conc. 20 μM, two values per substance, read-out: inhibition rate
[11] = Conc. 100 μM, two values per substance
[12] = Conc. 100 μM, two values per substance, read-out: inhibition rate

T1 sequence (Q9WV30 whole entry): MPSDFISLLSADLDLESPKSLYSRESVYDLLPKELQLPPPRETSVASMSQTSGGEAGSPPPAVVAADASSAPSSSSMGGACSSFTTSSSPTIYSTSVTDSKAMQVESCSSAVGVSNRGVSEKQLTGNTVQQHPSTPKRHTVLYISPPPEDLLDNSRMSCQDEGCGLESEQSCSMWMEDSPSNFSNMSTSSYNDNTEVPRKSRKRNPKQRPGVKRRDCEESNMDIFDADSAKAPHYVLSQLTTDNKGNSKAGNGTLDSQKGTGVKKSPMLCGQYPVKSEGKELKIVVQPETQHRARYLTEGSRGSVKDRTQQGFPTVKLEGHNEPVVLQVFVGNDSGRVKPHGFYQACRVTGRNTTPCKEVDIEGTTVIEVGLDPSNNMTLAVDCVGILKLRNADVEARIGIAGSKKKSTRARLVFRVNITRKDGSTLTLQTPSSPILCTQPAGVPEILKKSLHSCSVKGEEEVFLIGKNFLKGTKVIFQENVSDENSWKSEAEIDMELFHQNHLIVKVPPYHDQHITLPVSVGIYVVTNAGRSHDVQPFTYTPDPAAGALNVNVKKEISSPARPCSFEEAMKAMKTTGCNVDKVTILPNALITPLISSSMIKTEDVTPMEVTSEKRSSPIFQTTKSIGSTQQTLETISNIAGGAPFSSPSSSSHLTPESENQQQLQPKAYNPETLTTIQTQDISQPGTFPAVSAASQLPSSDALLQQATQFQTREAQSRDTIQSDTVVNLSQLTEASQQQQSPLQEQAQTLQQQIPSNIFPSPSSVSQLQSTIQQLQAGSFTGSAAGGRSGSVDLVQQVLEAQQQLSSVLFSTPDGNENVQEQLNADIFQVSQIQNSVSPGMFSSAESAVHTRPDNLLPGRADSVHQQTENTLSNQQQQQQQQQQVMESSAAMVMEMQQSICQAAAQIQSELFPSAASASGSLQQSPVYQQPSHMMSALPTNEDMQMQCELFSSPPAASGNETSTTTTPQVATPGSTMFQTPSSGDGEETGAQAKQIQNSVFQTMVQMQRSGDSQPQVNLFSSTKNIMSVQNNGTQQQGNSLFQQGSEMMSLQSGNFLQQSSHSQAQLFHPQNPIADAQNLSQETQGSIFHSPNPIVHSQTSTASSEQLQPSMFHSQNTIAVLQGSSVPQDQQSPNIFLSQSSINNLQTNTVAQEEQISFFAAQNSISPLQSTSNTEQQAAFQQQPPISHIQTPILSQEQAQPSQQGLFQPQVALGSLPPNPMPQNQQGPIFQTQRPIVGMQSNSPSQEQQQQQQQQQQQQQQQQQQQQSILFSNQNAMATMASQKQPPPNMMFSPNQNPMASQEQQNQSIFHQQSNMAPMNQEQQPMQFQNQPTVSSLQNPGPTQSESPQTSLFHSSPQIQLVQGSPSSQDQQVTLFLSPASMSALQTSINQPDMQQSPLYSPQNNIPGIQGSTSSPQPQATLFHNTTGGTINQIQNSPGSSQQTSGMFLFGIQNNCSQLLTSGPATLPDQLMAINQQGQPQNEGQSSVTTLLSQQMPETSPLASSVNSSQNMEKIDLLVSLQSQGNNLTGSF

For `COc1ccc2c(Cc3ccccc3F)c3n(c(=O)c2c1OC)CCc1cc2c(cc1-3)OCO2` [Example 1, 13-(2-fluorobenzyl)-9,10-dimethoxy-5H-[1,3]dioxolo[4,5-g]isoquinolino[3,2-a]isoquinoline-8(6H)-one], the “Inhibition rate of NFAT5 transcription (%)” value ([1]; 1 μM) was 11.2%, the “Inhibition rate of NFAT5 transcription (%)” value ([1]; 10 μM) was 81.2% and the “inhibiting NFAT5 activity (in words)” value ([1]; Table 3 and FIG. 1) was “remarkably excellent in inhibiting NFAT5 activity”. The “NaCl-mediated up-regulation of BGT1 transcript” value ([2]; FIG. 5A) was “not changed”, the “NaCl-mediated up-regulation of AR transcript” value ([2]; FIG. 5B) was “not changed” and the “inhibitory effect on COX1 (in words)” value [3] was “weak inhibitory effect”. For the same compound, the inhibition rate [3, 9] was 7.4, the inhibition at 20 µM [3, 10] was 11.4% and the inhibition rate [3, 11] was 23.4. The inhibition at 100 µM [3, 12] was 28.4%, the IC50 ([3]; Table 4) was over 100 µM and the “inhibitory effect on COX2 (in words)” value [4] was “weak inhibitory effect”. It also gave an inhibition rate [4, 9] of 15.5, an inhibition at 20 µM [4, 10] of 12.1% and an inhibition rate [4, 11] of 25.7. The inhibition at 100 µM [4, 12] was 36.7%, the IC50 ([4]; Table 5) was over 100 µM and the “expression of IL-6” value [5] was “reduced”. For the same compound, the “expression of TNF-α” value [5] was “reduced”, the “remaining compound, Rat (%)” value [6] was 35 ± 3% and the “remaining compound, Human (%)” value [7] was 68.2 ± 6.1%. The “expression of cytokines (IL-6, TNF-α transcription levels)” value [8] was “inhibit the expression of cytokines”.
